In paper PMC6754406, “Ran pathway-independent regulation of mitotic Golgi disassembly by Importin-α” (Nature Communications, 2019):
Where a SMILES comes first, the peptide text is derived from it. Where no end group is shown, it is not given here. [ ]: non-standard residue; d: D form. pS = N[C@@H](COP(=O)(O)O)C(=O)O

Columns and labels:
[1] = biological target: T1, Importin-β (Homo sapiens, UniProt Q14974); assay: Isothermal titration calorimetry (ITC), Importin-β; type: binding; details: for ITC profile (exothermic / endothermic): 25 °C
T1 construct: GST (N, cleaved yes); made in house; host or cells: Escherichia coli Rosetta
T1 sequence (Q14974 whole entry): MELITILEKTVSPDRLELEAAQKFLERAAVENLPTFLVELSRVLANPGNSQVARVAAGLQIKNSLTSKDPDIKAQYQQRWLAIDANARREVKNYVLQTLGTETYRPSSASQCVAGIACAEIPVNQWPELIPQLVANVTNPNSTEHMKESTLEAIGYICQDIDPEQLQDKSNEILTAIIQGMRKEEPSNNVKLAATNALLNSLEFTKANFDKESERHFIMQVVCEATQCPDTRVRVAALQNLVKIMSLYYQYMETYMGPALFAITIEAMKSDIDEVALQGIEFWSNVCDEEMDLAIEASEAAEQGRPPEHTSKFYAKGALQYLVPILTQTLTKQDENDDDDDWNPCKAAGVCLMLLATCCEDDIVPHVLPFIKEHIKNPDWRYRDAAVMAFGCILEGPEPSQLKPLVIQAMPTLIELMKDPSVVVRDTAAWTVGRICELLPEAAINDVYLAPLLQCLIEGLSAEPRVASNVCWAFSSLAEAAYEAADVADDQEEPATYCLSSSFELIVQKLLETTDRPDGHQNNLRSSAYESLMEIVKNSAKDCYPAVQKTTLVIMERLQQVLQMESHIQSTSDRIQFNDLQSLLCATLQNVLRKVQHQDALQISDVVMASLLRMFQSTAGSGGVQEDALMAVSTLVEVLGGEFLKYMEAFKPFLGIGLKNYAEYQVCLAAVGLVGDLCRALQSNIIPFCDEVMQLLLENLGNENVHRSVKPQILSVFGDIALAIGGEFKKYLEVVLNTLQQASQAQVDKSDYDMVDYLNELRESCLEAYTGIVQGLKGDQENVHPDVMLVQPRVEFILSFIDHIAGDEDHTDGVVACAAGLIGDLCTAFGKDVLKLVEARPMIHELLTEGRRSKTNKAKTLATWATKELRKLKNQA
From the text: Homo sapiens GM130 (a.a. 1–48), GM130 (a.a. 1–85), and Importin-β were amplified by PCR and ligated into pGEX-6P-1 (GE Healthcare). H. sapiens full-length Importin-α and Mus musculus Importin-α were amplified by PCR and ligated into modified pGEX-6P-1 (GE Healthcare) that produces proteins with 6-His at the C–terminus. Mouse Importin-α shares ~95% identity with human Importin-α over the full protein sequence, so we used the former for biochemical and structural studies. GM130-S25D (a.a. 1–48), GM130-S25D (a.a. 1–85), GM130-S25D/K14A (a.a. 1–85), and GM130-S25D/K34A (a.a. 1–85) mutants were created by PCR-based mutagenesis and were verified by sequencing. A list of primer sequences used in this study is shown in Supplementary Table 1.
Binding affinities of different GM130 proteins to Importin-α and Importin-β were measured by ITC (MicroCal iTC200). All proteins were dialyzed against ITC buffer (20 mM HEPES pH 7.4, 1 mM DTT) with either 50 or 200 mM NaCl. Protein concentrations were determined spectrophotometrically with respective extinction coefficients. ITC was performed at 25 °C. The respective heat changes were fitted using a one-sites binding model.

[2] = biological target: T1, Importin-β; assay: Size exclusion chromatography co-migration with Importin-β; type: binding; details: Superdex 200, 20 mM HEPES pH 7.4, 50 mM NaCl, 3 mM DTT, 1:1
Experimental: Fig. 4 Ran and a phosphate moiety repress GM130 and Importin-β interaction. a SEC (Superdex 200) elution profiles for the Importin-β•GST-GM130-WT complex (black line), Importin-β (gray line), and GST-GM130-WT (light gray line). The void volume (Vo) is indicated. b–d The peak fractions of the Importin-β•GST-GM130-WT complex (b), Importin-β (c), and GST-GM130-WT (d) were analyzed by SDS–PAGE and stained with Coomassie blue. e, f ITC titration curves (upper) and binding isotherms (lower) of Importin-β with GM130-NLS WT (e) and GM130-NLS phospho-S25 (f). Kd values are indicated. g Competition binding assay. GST-GM130-S25D and Importin-β were incubated with indicated concentrations of GFP-IBB. Samples pulled down by GST beads were analyzed by SDS–PAGE and stained with Coomassie blue. […] GST-bound samples were analyzed by SDS–PAGE and stained with Coomassie blue. i, k Band intensities of Importin-α or Importin-β from the SDS–PAGE gels in h, j were used to determine averages of bound protein. […]
GST-GM130-WT and GST-GM130-S25D were, respectively, incubated with Importin-β or Importin-α FL in a molar ratio of 1:1. […] Peak fractions were analyzed by SDS–PAGE.

[3] = biological target: T2, Importin-α(ΔIBB) (a.a. 70–524) (Mus musculus, UniProt P52293); assay: Isothermal titration calorimetry (ITC), Importin-α(ΔIBB); type: binding; details: 200 mM NaCl
T2 construct: Importin-α lacking the IBB domain (a.a. 70–524; hereafter Importin-α(ΔIBB)); GST (N); made in house; host or cells: Escherichia coli Rosetta
From the text: Phosphorylation of GM130 on Ser-25 is correlated with p115 dissociation, with this process appearing to be specific to mitosis and being responsible for reduction of p115-mediated vesicle fusion to Golgi membranes[5]–[7],[9],[10]. The N-terminal region of GM130 and the p115 C-terminus interact[11],[12], so we purified recombinant proteins containing these two regions and then assessed their binding affinity by isothermal titration calorimetry (ITC). The wild type GM130 N-terminal region (a.a. 1-85; hereafter GM130-WT) directly bound p115 (a.a. 780–930; hereafter p115-CTD) (Fig. 1a). Furthermore, we examined if GM130 phosphorylation reduces the binding affinity for p115. […] We found in competition-binding assays that p115-CTD pulldown by GST-GM130-S25D was reduced when we added increasing amounts of Importin-α lacking the IBB domain (a.a. 70–524; hereafter Importin-α(ΔIBB)) (Fig. 1c). […] Therefore, we propose that binding of Importin-α to GM130 could be primarily responsbile for preventing interaction between p115 and GM130 during mitosis.
Homo sapiens GM130 (a.a. 1–48), GM130 (a.a. 1–85), and Importin-β were amplified by PCR and ligated into pGEX-6P-1 (GE Healthcare). […]
Binding affinities of different GM130 proteins to Importin-α and Importin-β were measured by ITC (MicroCal iTC200). […] Protein concentrations were determined spectrophotometrically with respective extinction coefficients. […]

[4] = test system: Importin-α associated with GM130; assay: Immuno-precipitation of Importin-α with GM130 antibody, RO-3306-treated nocodazole-arrested HEK293T cells; type: cell-based; details: RO-3306-treated vs untreated, 10 µM/ml, 2 h; three independent experiments
Experimental: (§1) To pull down endogenous GM130, HEK293T cells were synchronized via nocodazole treatment and lysed in a buffer containing 50 mM Tris–HCl (pH 7.4), 150 mM NaCl, 1 mM EDTA, 10% glycerol, 1% Triton, 0.15% SDS, protease inhibitor cocktail (Roche), and 1 mM PMSF. Clarified lysates were pre-incubated with GM130 antibody (Abcam ab52649) for 12 h at 4 °C, followed by one hour incubation with IgG sepharose^TM 6 Fast Flow (GE Healthcare). Beads were then washed three times with buffer (20 mM HEPES pH 7.4, 150 mM NaCl, 1.5 mM MgCl2, 10% glycerol, 0.1% Triton). Protein samples were boiled in SDS sample buffer and analyzed by SDS–PAGE, followed by Western blotting analysis.
(§2) To prepare Cdk1 inhibitor treated lysates for GM130 pull-down assays, WT HEK293T cells were synchronized by 30 µM of nocodazole for 13 h, followed by treatment of Cdk1 inhibitor RO-3306 (10 µM/ml) (Sigma, cat#SML0569) for 2 h.
(§3) Sup ple me ntary Figu re 5. Cell-base d e xam ination of the K34A mutation of G M130. a, Representative fluorescent images of w ild-type and two K34A mutant cell lines at metaphase.
(§4) Sca le b a r : 1 0 µm. b, Images of nocodaz o le-ar r e st ed H EK 2 9 3 T ce ll s without (left) and w ith (right) RO-3306 treatment acquired by bright-field illum ination. Sc ale ba r: […]

[5] = test system: p115 associated with GM130; assay: Immuno-precipitation of p115 with GM130 antibody, RO-3306-treated nocodazole-arrested HEK293T cells; type: cell-based; details: RO-3306-treated vs untreated, 10 µM/ml, 2 h; three independent experiments
Experimental: as §1, §2, §3, §4

[6] = test system: Cdk1; details: 1-h RO-3306 treatment; ref [23]; cited from earlier work

| ITC profile (exothermic / endothermic) [1] | co-migration with Importin-β by SEC [2] | binding affinity for Importin-α(ΔIBB) vs wild type [3] | binding constant relative to wild-type GM130 peptide ([1]; relative to wild-type GM130 peptide) | Molecule | Importin-α pulldown by GM130 [4] | p115 pulldown by GM130 [5] | block of Cdk1 activity [6] | morphological transition [6] |
| --- | --- | --- | --- | --- | --- | --- | --- | --- |
| exothermic profile | co-migration |  |  | AKKKLREYQQRNSPGVPTGAKKKKKIK [GM130-NLS WT] |  |  |  |  |
| endothermic curve |  | better binding affinities | at least three orders of magnitude lower | CC[C@H](C)[C@H](NC(=O)[C@H](CCCCN)NC(=O)[C@H](CCCCN)NC(=O)[C@H](CCCCN)NC(=O)[C@H](CCCCN)NC(=O)[C@H](CCCCN)NC(=O)[C@H](C)NC(=O)CNC(=O)[C@@H](NC(=O)[C@@H]1CCCN1C(=O)[C@@H](NC(=O)CNC(=O)[C@@H]1CCCN1C(=O)[C@H](COP(=O)(O)O)NC(=O)[C@H](CC(N)=O)NC(=O)[C@H](CCCNC(=N)N)NC(=O)[C@H](CCC(N)=O)NC(=O)[C@H](CCC(N)=O)NC(=O)[C@H](Cc1ccc(O)cc1)NC(=O)[C@H](CCC(=O)O)NC(=O)[C@H](CCCNC(=N)N)NC(=O)[C@H](CC(C)C)NC(=O)[C@H](CCCCN)NC(=O)[C@H](CCCCN)NC(=O)[C@H](CCCCN)NC(=O)[C@H](C)N)C(C)C)[C@@H](C)O)C(=O)N[C@@H](CCCCN)C(=O)N[C@@H](CC(N)=O)C(=O)O [GM130-NLS phospho-S25] (H-AKKKLREYQQRN[pS]PGVPTGAKKKKKIKN-OH; N-terminus and C-terminus assumed) |  |  |  |  |
|  |  |  |  | O=C1NC(=NCc2cccs2)S/C1=C\c1ccc2ncccc2c1 [RO-3306] | reduced | enhanced | sufficient to block Cdk1 activity | morphological transition from rounded mitotic cells to a flat interphase shape |
